Test results taken from US12396995B2, “Substituted 4-aminoisoindoline-1,3-dione compounds and second active agents for combined use” (Celgene Corporation, priority 2019, dated 2025).

Tests used:
[1] = test system: cell lines from hematological malignancies; experiment: Cell Titer Glo proliferation, Compound 1 in combination with second active agents; format: cell-based; details: very sensitive cell lines such as JJN-3, SU-DHL2 or SU-DHL10; combined with Compound 1
Experimental: Cell Lines/Cells: Activated B-Cell (ABC) cell lines: TMD-8, SU-DHL-2, OCI-Ly10, RIVA, U2932; and Germinal Center B-cell (GCB) cell lines: SU-DHL10, Pfeiffer, WSU-DLCL2, SU-DHL4, DB; myeloma cell lines: H929, JJN3 and SK-MM1; acute myeloid leukemia cell line: HNT-34; acute lymphocytic leukemia cell line: Karpas-231; other lymphoma cell lines: Daudi, Karpas-299, HuT-102, L-428.
Alternatively, combination compound solutions were serially diluted from 5 μM starting concentration and serially diluted 6-fold for a 6-point dilution curve. […] Cells were added to each well and cultured for 3 days. […] For some other epigenetic agents (EPZ5676, C646, OICR-9429, ACY-241, GSK3484862, Compound C, UNC 0631, GSK3326595, LP99, A-196, CARM1 EZM2302) cells were cultured for 5 days due to their mechanism of action.
Plates were either made at a concentration of 10 μM or 1 μM diluted 3-fold for a 10-point dilution curve, with a final DMSO concentration of 0.2%. All cell line solutions were diluted to a concentration of 100,000 cells/mL and added to each well in a volume of 50 μL, with the exception of SU-DHL-6 solution, which was diluted to 25,000 cells/mL. At the end of the treatment period cells were lysed with Cell Titer Glo (CTG) reagents following manufacture recommendation. Luminescent signal was read using an Envision and data was normalized by DMSO for data analysis.
Data Analysis: The combination effect was analyzed by combining results from Highest Single Agent (HSA) and Bliss Independency methods. See, e.g., Foucquier J, Guedj M., Analysis of drug combinations: current methodological landscape. Pharmacol Res Perspect. 2015; 3(3):e00149. doi:10.1002/prp2.149.
Combined results of HSA and Bliss scores were used to define synergistic and additive effect of the combinations.

[2] = test system: WSU-DLCL2 DLBCL xenograft tumors; experiment: WSU-DLCL2 (DLBCL) xenograft model, Compound 1 alone and with tazemetostat; format: in vivo, female SCID mice; details: single agent tazemetostat 200 mg/kg oral BID, three weeks
Experimental: (§1) Anti-tumor activity of Compound 1 alone and in combination with tazemetostat was studied in WSU-DLCL2 (DLBCL) xenograft model. Compound 1 (1 mg/kg) was administered once daily for 5 consecutive days followed by 2 days off (5 D on/2 D off) and tazemetostat (200 mg/kg) was administered twice daily (BID).
(§2) Methods: Xenograft study was conducted with female SCID mice bearing WSU-DLCL2 DLBCL xenograft tumors. Female SCID mice were inoculated subcutaneously with WSU-DLCL2 cells in the flank region above the right hind leg. Following inoculation of animals, the tumors were allowed to grow to approximately 200 mm^3 prior to randomization. On day 14 following tumor cell inoculation, the mice bearing WSU-DLCL2 tumors ranging between 150 and 250 mm^3 were pooled together and randomized into various treatment groups. Compound 1 was formulated in 0.5% Methyl Cellulose, 0.25% Tween 80 and 50 mM Citrate pH 3 in water. Tazemetostat was formulated in CMC-Tween. Compound 1 (1 mg/kg) was orally administered with three cycles of once daily for 5 consecutive days followed by 2 days off starting from day 14 after tumor cell inoculation. Tazemetostat 200 mg/kg) was orally administered twice day (BID) for three weeks. In combination group the animals received Compound 1 (1 mg/kg/5 D on/2 D off) and tazemetostat (200 mg/kg, BID) simultaneously for three weeks starting from day 14 after tumor cell inoculation. Tumors were measured twice a week using calipers and tumor volumes were calculated using the formula of W^2×L/2. Statistical analysis was performed using a one-way or 2-way analysis of variance (ANOVA). Synergy calculations were performed using fractional product method.

[3] = test system: DB DLBCL xenograft tumors; experiment: DB (DLBCL) xenograft model, Compound 1 alone and with tazemetostat; format: in vivo, female SCID mice; details: single agent tazemetostat 200 mg/kg oral BID, three weeks
Experimental: as §1, with “DB” for “WSU-DLCL2”, “(3, 10 or 30” for “(1”
as §2, with “bearing DB” for “bearing WSU-DLCL2”, “with DB” for “with WSU-DLCL2”, “day 33” for “day 14”, “1 (3, 10 or 30” for “1 (1”, “Tazemetostat (200” for “Tazemetostat 200”, “1 (3, 10 or 30 mg/kg, 5” for “1 (1 mg/kg/5”

Structure (SMILES) | effect on proliferation of combination with Compound 1 (HSA and Bliss scores) [1] | also measured
CC[C@]1(O)C[C@H]2CN(CCc3c([nH]c4ccccc34)[C@@](C(=O)OC)(c3cc4c(cc3OC)N(C=O)[C@H]3[C@@](O)(C(=O)OC)[C@H](OC(C)=O)[C@]5(CC)C=CCN6CC[C@]43[C@@H]65)C2)C1 [vincristine] | synergistic effects | –
COc1cc(Nc2ncc3c(n2)-c2ccc(Cl)cc2C(c2c(F)cccc2OC)=NC3)ccc1C(=O)O [alisertib, 4-((9-chloro-7-(2-fluoro-6-methoxyphenyl)-5H-benzo[c]pyrimido[4,5-e]azepin-2-yl)amino)-2-methoxybenzoic acid] | synergistic effects | –
Cc1cnc(Nc2ccc(OCCN3CCCC3)cc2)nc1Nc1cccc(S(=O)(=O)NC(C)(C)C)c1 [fedratinib, N-tert-butyl-3-[(5-methyl-2-{4-[2-(pyrrolidin-1-yl)ethoxy]anilino}pyrimidin-4-yl)amino]benzenesulfonamide] | synergistic effects | –
CCN(c1cc(-c2ccc(CN3CCOCC3)cc2)cc(C(=O)NCc2c(C)cc(C)[nH]c2=O)c1C)C1CCOCC1 [tazemetostat, N-[(1,2-dihydro-4,6-dimethyl-2-oxo-3-pyridinyl)methyl]-5-[ethyl(tetrahydro-2H-pyran-4-yl)amino]-4-methyl-4′-(4-morpholinylmethyl)-[1,1′-biphenyl]-3-carboxamide, reference compound] | – | inhibition of tumor growth [2]: −50.5%; inhibition of tumor growth (TVR) [3]: 64.5%; inhibition of tumor growth (TVR) ([3]; listed as Tazemetostat): −45.9%
CO[C@H]1C[C@@H]2CC[C@@H](C)[C@@](O)(O2)C(=O)C(=O)N2CCCC[C@H]2C(=O)O[C@H]([C@H](C)C[C@@H]2CC[C@@H](OCCO)[C@H](OC)C2)CC(=O)[C@H](C)/C=C(\C)[C@@H](O)[C@@H](OC)C(=O)[C@H](C)C[C@H](C)/C=C/C=C/C=C/1C [everolimus, 40-O-(2-hydroxyethyl)-rapamycin] | synergistic effects | –
Cc1sc2c(c1C)C(c1ccc(Cl)cc1)=N[C@@H](CC(=O)Nc1ccc(O)cc1)c1nnc(C)n1-2 [birabresib, (S)-2-(4-(4-chlorophenyl)-2,3,9-trimethyl-6H-thieno[3,2-f][1,2,4]triazolo[4,3-a][1,4]diazepin-6-yl)-N-(4-hydroxyphenyl)acetamide] | synergistic effects | –
Cc1[nH]c2ccccc2c1CCNCc1ccc(/C=C/C(=O)NO)cc1 [panobinostat, (2E)-N-hydroxy-3-[4-({[2-(2-methyl-1H-indol-3-yl)ethyl]amino}methyl)phenyl]acrylamide] | synergistic effects | –
